# Source: paper PMC7126098 (Bioorganic & Medicinal Chemistry, 2019)
# Key:
# [1] = test system: herpes simplex virus-1 (KOS strain); test: Inhibition of virus-induced cytopathicity, HSV-1; type: cell-based; details: anti-HSV screening in HEL cells
# [2] = test system: herpes simplex virus-2 (G strain); test: Inhibition of virus-induced cytopathicity, HSV-2; type: cell-based; details: Human alphaherpesvirus 2, HEL, read-out: EC50 HSV-2
# [3] = test system: eight human cancer cell lines; test: Cytostatic activity against panel of human cell lines; type: cell-based; details: for IC50: Homo sapiens, read-out: cytostatic activity (IC50 range over cell lines)
# [4] = Stability towards light and air; type: physicochemical
# [5] = test system: HSV-1 TK; details: relative to ACV; cited from earlier work
# [6] = test system: human cytomegalovirus (HCMV) (AD-169 strain and Davis strain); test: Inhibition of virus-induced cytopathogenicity, HCMV in HEL cells; type: cell-based
# [7] = test system: pancreatic adenocarcinoma Capan-1 cell line; test: Cytostatic activity against Capan-1; type: cell-based, human
# [8] = test system: cell culture; details: at concentrations up to 100 µg/mL; cited from earlier work
structure (smiles),measurement,setting,value
"O=c1c2ncn(CCC(CO)CO)c2nc2[nH]c(-c3ccccc3)cn12 [9a, 3-(4-Hydroxy-3-(hydroxymethyl)butyl)-6-phenyl-3,5-dihydro-9H-imidazo[1,2-a]purin-9-one]",antiviral activity (in words),[1],inactive
"O=c1c2ncn(CCC(CO)CO)c2nc2[nH]c(-c3ccc(F)cc3)cn12 [9b, 6-(4-Fluorophenyl)-3-(4-hydroxy-3-(hydroxymethyl)butyl)-3,5-dihydro-9H-imidazo[1,2-a]purin-9-one]",EC50,[2],28 to 40.9 µM
"O=c1c2ncn(CCC(CO)CO)c2nc2[nH]c(-c3ccc(Cl)cc3)cn12 [9c, 6-(4-Chlorophenyl)-3-(4-hydroxy-3-(hydroxymethyl)butyl)-3,5-dihydro-9H-imidazo[1,2-a]purin-9-one]",antiviral activity (in words),[1],inactive
"Cc1ccc(-c2cn3c(=O)c4ncn(CCC(CO)CO)c4nc3[nH]2)cc1 [9d, 3-(4-Hydroxy-3-(hydroxymethyl)butyl)-6-(p-tolyl)-3,5-dihydro-9H-imidazo[1,2-a]purin-9-one]",antiviral activity (in words),[1],inactive
"O=c1c2ncn(CCC(CO)CO)c2nc2[nH]c(-c3ccc(C(F)(F)F)cc3)cn12 [9e, 3-(4-Hydroxy-3-(hydroxymethyl)butyl)-6-(4-(trifluoromethyl)phenyl)-3,5-dihydro-9H-imidazo[1,2-a]purin-9-one]",EC50,[2],28 to 40.9 µM
same,IC50,[3],12.5 to 76.1 µM
"O=c1c2ncn(CCC(CO)CO)c2nc2[nH]c(-c3ccc4c(c3)OCO4)cn12 [9i, 6-(Benzo[d][1,3]dioxol-5-yl)-3-(4-hydroxy-3-(hydroxymethyl)butyl)-3,5-dihydro-9H-imidazo[1,2-a]purin-9-one]",EC50,[2],28 to 40.9 µM
"O=c1c2ncn(CCC(CO)CO)c2nc2[nH]c(-c3ccc(Oc4ccccc4)cc3)cn12 [9j, 3-(4-Hydroxy-3-(hydroxymethyl)butyl)-6-(4-phenoxyphenyl)-3,5-dihydro-9H-imidazo[1,2-a]purin-9-one]",IC50,[3],16.9 to 90.4 µM
same,antiviral activity (in words),[1],inactive
"O=c1c2ncn(CCCCO)c2nc2[nH]c(-c3ccc(C(F)(F)F)cc3)cn12 [10e, 3-(4-Hydroxybutyl)-6-(4-(trifluoromethyl)phenyl)-3,5-dihydro-9H-imidazo[1,2-a]purin-9-one]",cytostatic activity (in words),[3]; range of cancer cell lines,most effective
"O=c1c2ncn(CCCCO)c2nc2[nH]c(-c3cccs3)cn12 [10h, 3-(4-Hydroxybutyl)-6-(thiophen-2-yl)-3,5-dihydro-9H-imidazo[1,2-a]purin-9-one]",stability towards light and air,[4],stable enough to be collected safely
"Nc1nc2c(ncn2CCCCO)c(=O)[nH]1 [HBG, hydroxybutylguanine]",affinity for HSV-1 TK (in words),[5],higher affinity for HSV-1 TK than ACV
same,activity against HCMV (in words),[6],inactive
same,inhibition of proliferation of Capan-1 (in words),[7],slightly inhibited
"Nc1nc2c(ncn2CCC(CO)CO)c(=O)[nH]1 [PCV, penciclovir]",toxicity in cell culture,[8],did not exhibit any toxicity
same,activity against HCMV (in words),[6],not inhibitory
same,inhibition of proliferation of Capan-1 (in words),[7],slightly inhibited
